ChEMBL document CHEMBL5370592, “Synthesis and Structure-Activity Relationships of a New Class of Oxadiazoles Targeting DprE1 as Antitubercular Agents” (ACS Med Chem Lett, 2023)
Converted amounts (≈) assume the structure as drawn. The source made the active and inactive calls. No cut-off for these calls is given here.

What was measured:
[1] = system: Mycobacterium tuberculosis; assay: Antitubercular activity against Mycobacterium tuberculosis H37Rv ATCC 27294 assessed as inhibition of bacterial growth cultured in Middlebrook 7H9/ADC/Tween 80 with cydC::aph medium for 2 weeks; assay type: functional; details: H37Rv ATCC 27294, 336 h
[2] = system: Mycobacterium tuberculosis; assay: Antitubercular activity against Mycobacterium tuberculosis H37RV ATCC 27294 assessed as inhibition of bacterial growth cultured in Middlebrook 7H9/cholesterol/BSA/Tyloxapol medium for 2 weeks; assay type: functional; details: H37Rv ATCC 27294, 336 h
[3] = system: Mycobacterium tuberculosis; assay: Antitubercular activity against Mycobacterium tuberculosis H37Rv ATCC 27294 assessed as inhibition of bacterial growth cultured in Middlebrook 7H9/DPPC/cholesterol/BSA/Tyloxapol medium for 2 weeks; assay type: functional; details: H37Rv ATCC 27294, 336 h
[4] = system: Mycobacterium tuberculosis; assay: Antitubercular activity against Mycobacterium tuberculosis H37Rv ATCC 27294 assessed as inhibition of bacterial growth cultured in Middlebrook 7H9/BSA/Tyloxapol with glucose medium for 2 weeks; assay type: functional; details: H37Rv ATCC 27294, 336 h
[5] = system: Mycobacterium tuberculosis; assay: Antitubercular activity against Mycobacterium tuberculosis H37Rv ATCC 27294 assessed as inhibition of bacterial growth cultured in Middlebrook 7H9/ADC/Tween 80 medium for 2 weeks; assay type: functional; details: H37Rv ATCC 27294, 336 h
[6] = system: Mycobacterium tuberculosis; assay: Antitubercular activity against Mycobacterium tuberculosis K10b00DS assessed as inhibition of bacterial growth incubated for 2 weeks; assay type: functional; details: 336 h
[7] = target: T1, Decaprenylphosphoryl-beta-D-ribose oxidase (Mycobacterium tuberculosis (strain ATCC 25618 / H37Rv)) (UniProt P9WJF1); assay: Inhibition of DprE1-mediated cell wall synthesis in Mycobacterium tuberculosis H37Rv transfected with PiniB-LUX reporter assessed as induction of reporter gene expression incubated for 12 days by bioluminescence analysis; details: time 12.0 day
T1 sequence (whole entry): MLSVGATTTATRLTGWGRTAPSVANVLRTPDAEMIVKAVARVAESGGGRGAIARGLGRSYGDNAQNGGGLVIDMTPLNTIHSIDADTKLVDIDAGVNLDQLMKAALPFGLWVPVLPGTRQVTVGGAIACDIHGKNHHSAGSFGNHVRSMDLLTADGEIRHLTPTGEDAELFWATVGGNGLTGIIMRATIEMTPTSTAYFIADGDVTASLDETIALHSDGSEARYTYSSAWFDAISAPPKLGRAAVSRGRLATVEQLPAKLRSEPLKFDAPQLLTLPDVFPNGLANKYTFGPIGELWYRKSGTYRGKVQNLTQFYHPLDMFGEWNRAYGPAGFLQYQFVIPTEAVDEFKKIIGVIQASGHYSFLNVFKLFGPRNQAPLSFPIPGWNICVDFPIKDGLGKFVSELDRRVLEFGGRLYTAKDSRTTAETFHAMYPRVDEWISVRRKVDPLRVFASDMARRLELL

[8] = system: Mycobacterium tuberculosis; assay: Induction of DNA damage in Mycobacterium tuberculosis H37Rv transfected with PrecA-LUX reporter assessed as induction of recA reporter gene expression incubated for 12 days by bioluminescence analysis; assay type: functional, organism-based; details: time 12.0 day
[9] = system: Mycobacterium tuberculosis; assay: Induction of DNA damage in Mycobacterium tuberculosis H37Rv transfected with PradA-LUX reporter assessed as induction of radA reporter gene expression incubated for 12 days by bioluminescence analysis; assay type: functional, organism-based; details: time 12.0 day
[10] = system: Mycobacterium tuberculosis; assay: Antitubercular activity against Mycobacterium tuberculosis H37Rv ATCC 27294 assessed as inhibition of bacterial growth cultured in Middlebrook 7H9/glucose/casitone/tyloxapol medium for 2 weeks; assay type: functional; details: H37Rv ATCC 27294, 336 h
[11] = Cytotoxicity against human HepG2 cells assessed as reduction in cell viability incubated for 24 hrs in DMEM/10% FBS supplemented with glucose by CellTiter-Glo luminescent assay; assay type: toxicity, cell-based
[12] = Cytotoxicity against human HepG2 cells assessed as reduction in cell viability incubated for 24 hrs in DMEM/10% FBS supplemented with galactose by CellTiter-Glo luminescent assay; assay type: toxicity, cell-based
[13] = system: Mycobacterium tuberculosis; assay: Antitubercular activity against Mycobacterium tuberculosis infected in mouse J774 cells assessed as decrease in colony forming unit enumeration on solid medium at 5XMIC measured after 7 days; assay type: functional, organism-based; details: time 7.0 day
[14] = system: Mycobacterium tuberculosis; assay: Antitubercular activity against Mycobacterium tuberculosis H37Rv ATCC 27294 assessed as inhibition of bacterial growth incubated for 2 weeks; assay type: functional; details: H37Rv ATCC 27294, 336 h
[15] = system: Mycobacterium tuberculosis; assay: Antitubercular activity against Mycobacterium tuberculosis Erdman assessed as inhibition of bacterial growth incubated for 2 weeks; assay type: functional; details: 336 h
[16] = system: Mycobacterium tuberculosis; assay: Antitubercular activity against Mycobacterium tuberculosis HN878 assessed as inhibition of bacterial growth incubated for 2 weeks; assay type: functional; details: HN878, 336 h
[17] = system: Mycobacterium tuberculosis; assay: Antitubercular activity against Mycobacterium tuberculosis CDC1551 assessed as inhibition of bacterial growth incubated for 2 weeks; assay type: functional; details: CDC1551, 336 h
[18] = system: Mycobacterium tuberculosis; assay: Antitubercular activity against Mycobacterium tuberculosis clinical strain K5072429 assessed as inhibition of bacterial growth incubated for 2 weeks; assay type: functional; details: K5072429, 336 h
[19] = system: Mycobacterium tuberculosis; assay: Antitubercular activity against Mycobacterium tuberculosis K04b00DS assessed as inhibition of bacterial growth incubated for 2 weeks; assay type: functional; details: 336 h
[20] = system: Mycobacterium tuberculosis; assay: Antitubercular activity against Mycobacterium tuberculosis K05b00DS assessed as inhibition of bacterial growth incubated for 2 weeks; assay type: functional; details: 336 h
[21] = system: Mycobacterium tuberculosis; assay: Antitubercular activity against Mycobacterium tuberculosis K07b00DS assessed as inhibition of bacterial growth incubated for 2 weeks; assay type: functional; details: 336 h
[22] = system: Mycobacterium tuberculosis; assay: Antitubercular activity against Mycobacterium tuberculosis K09b00DS assessed as inhibition of bacterial growth incubated for 2 weeks; assay type: functional; details: 336 h
[23] = system: Mycobacterium tuberculosis; assay: Antitubercular activity against Mycobacterium tuberculosis K11b00DS assessed as inhibition of bacterial growth incubated for 2 weeks; assay type: functional; details: 336 h
[24] = system: Mycobacterium tuberculosis; assay: Antitubercular activity against Mycobacterium tuberculosis K12b00DS assessed as inhibition of bacterial growth incubated for 2 weeks; assay type: functional; details: 336 h
[25] = system: Mycobacterium tuberculosis; assay: Antitubercular activity against Mycobacterium tuberculosis K13b00DS assessed as inhibition of bacterial growth incubated for 2 weeks; assay type: functional; details: 336 h
[26] = system: Mycobacterium tuberculosis; assay: Antitubercular activity against Mycobacterium tuberculosis K14b00DS assessed as inhibition of bacterial growth incubated for 2 weeks; assay type: functional; details: 336 h
[27] = system: Mycobacterium tuberculosis; assay: Antitubercular activity against Mycobacterium tuberculosis K15b00DS assessed as inhibition of bacterial growth incubated for 2 weeks; assay type: functional; details: 336 h
[28] = system: Mycobacterium tuberculosis; assay: Antitubercular activity against Mycobacterium tuberculosis K16b00DS assessed as inhibition of bacterial growth incubated for 2 weeks; assay type: functional; details: 336 h
[29] = system: Mycobacterium tuberculosis; assay: Antitubercular activity against Mycobacterium tuberculosis K17b00DS assessed as inhibition of bacterial growth incubated for 2 weeks; assay type: functional; details: 336 h
[30] = system: Mycobacterium tuberculosis; assay: Antitubercular activity against Mycobacterium tuberculosis K35b00DS assessed as inhibition of bacterial growth incubated for 2 weeks; assay type: functional; details: 336 h
[31] = system: Mycobacterium tuberculosis; assay: Antitubercular activity against Mycobacterium tuberculosis NIH_G12 assessed as inhibition of bacterial growth incubated for 2 weeks; assay type: functional; details: NIH_G12, 336 h

Q: What does the source list for `O=C(C1CCN(c2nnc(-c3ccccc3)o2)CC1)N1CCC(Cc2ccccc2)CC1`?
A: MIC [1]: 0.6 µM (≈ 0.258 µg/mL); MIC [2]: 0.78 µM (≈ 0.336 µg/mL); MIC [3]: 0.6 µM (≈ 0.258 µg/mL); MIC [4]: 0.78 µM (≈ 0.336 µg/mL); MIC [5]: 0.78 µM (≈ 0.336 µg/mL); MIC [6]: 1.2 µM (≈ 0.517 µg/mL); inhibition [7]: Active; Activity [8]: inactive; Activity [9]: inactive; MIC [10]: 0.1 µM (≈ 0.0431 µg/mL); IC50 at 24 h [11]: > 50 µM; IC50 at 24 h [12]: 37.5 µM; Activity [13]: Active; MIC [14]: 0.6 µM (≈ 0.258 µg/mL); MIC [15]: 0.39 µM (≈ 0.168 µg/mL); MIC [16]: 0.78 µM (≈ 0.336 µg/mL); MIC [17]: 0.6 µM (≈ 0.258 µg/mL); MIC [18]: 2.3 µM (≈ 0.99 µg/mL); MIC [19]: 0.78 µM (≈ 0.336 µg/mL); MIC [20]: 1.2 µM (≈ 0.517 µg/mL); MIC [21]: 1.2 µM (≈ 0.517 µg/mL); MIC [22]: 1.2 µM (≈ 0.517 µg/mL); MIC [23]: 1.56 µM (≈ 0.672 µg/mL); MIC [24]: 1.56 µM (≈ 0.672 µg/mL); MIC [25]: 1.2 µM (≈ 0.517 µg/mL); MIC [26]: 1.2 µM (≈ 0.517 µg/mL); MIC [27]: 0.78 µM (≈ 0.336 µg/mL); MIC [28]: 0.78 µM (≈ 0.336 µg/mL); MIC [29]: 0.78 µM (≈ 0.336 µg/mL); MIC [30]: 1.2 µM (≈ 0.517 µg/mL); MIC [31]: 0.78 µM (≈ 0.336 µg/mL)
